From patent US20050143927A1, “Method for estimating or predicting the anti-tumor activity of a compound and for estimating or predicting the tumor growth in mammals” (Pharmacia Italia S.p.A., priority 2002, published 2005)

Experiments:
[1] = system: H207 (ovarian human carcinoma); assay: Tumor growth model for treated subjects, H207 inoculated subcutaneously in athymic nude mice (Experiment-C); format: in vivo; details: average growth curve
Procedure: The cell line H207 (ovarian human carcinoma) was inoculated subcutaneously on the back of 70 female athymic nude mice, initially weighing 17.0-25.0 g. […] Cage G2: 7 mice, treated with 3 iv-bolus of Drug-C, repeated every 7 days (therapeutic regimen q7d×3), at a dosing of 0.39 mg/kg. • III. Cage G3: 7 mice, treated with iv-bolus of Drug-C at the therapeutic regimen q7d×3, at a dosing of 0.52 mg/kg. • IV. […] Cage G6: 7 mice, treated with iv-bolus of Drug-C at the therapeutic regimen q4d×3, at a dosing of 0.39 mg/kg. • VII. Cage G8: 7 mice, treated with iv-bolus of Drug-C at the therapeutic regimen q4d×3, at a dosing of 0.52 mg/kg. • VIII. Cage G9: 7 mice, treated with 10 iv-bolus of Drug-C, subdivided in 2 cycles of treatment of 5 daily iv-bolus followed by 2 days of rest (therapeutic regimen qd×5×2 wks), at the dosing of 0.117 mg/kg each. • IX. Cage G10: 7 mice treated at the same treatment and therapeutic regimen of G4, but with the drug coming from a different batch of production.
In this case, despite the silent interval finished in correspondence of the tenth day (where the first measurement of the tumor mass was carried out), the chemotherapeutic treatment started in correspondence of the eleventh day.
The dimensions of the tumor can be taken applying different types of measurements broadly classifiable as measurements of linear dimensions, of volume (or mass) and cell number. For tumors that maintain more or less a spherical morphology, as in the case of solid tumors, the measurement of the three principal diameters results the most adequate, as well as the most practiced solution. Nevertheless, in the case of subcutaneous tumors, the tumor can be considered of spherical shape only during the initial phase of growth; in the following phases, the dimension perpendicular to the skin is generally much smaller than the percutaneous dimensions, conferring to the mass a plaque-like shape or an hemi-ellipsoidal shape. In the experiments taken into consideration, only the dimensions of the two percutaneous diameters were directly measured with vernier calipers. The third dimension was not directly measured, because of the limited accessibility (which would have required a greater invasiveness), in the assumption that two measures were anyhow sufficient to guarantee a good approximation of the tumor mass (K. Rygaard and M. Spang-Thomsen, “Quantitation and Gompertzian analysis of tumor growth”. Breast Cancer Research and Treatment, 46: 303-312,1997).
The volume of a tumor can be indirectly calculated by applying the following empirical formula: [formula] where DMIN and DMAX denote, respectively, the smallest and the largest percutaneous diameter. Such empirical formula hypothesizes that the neoplasia has an ellipsoidal shape (D. A. Cameron, W. M. Gregory, A. Bowman, E. D. C. Anderson, P. Levack, P. Forouhi and R. F. C. Leonard, “Identification of long-term survivors in primary breast cancer by dynamic modeling of tumour response”. British Journal of Cancer, 83(1): 98-103, 2000, Hammond, L. A.; Hilsenbeck, S. G.; Eckhardt, S. G.; Marty, J; Mangold, G.; MacDonald, G. R.; Rowinsky, E. K.; Von Hoff, D. D; Weitman S. Enhanced antitumour activity of 6-hydroxymethylacylfulvene in combination with topotecan or paclitaxel in the MV522 lung carcinoma xenograft model. European Journal of Cancer 2000, 36, 2430-2436) obtained by the rotation of a hemi-ellipsoid (with DMIN and DMAX as axes of the percutaneous plane) around its largest axe. Assuming δ as a constant density equal to δ=10^−3g/mm^3, the empirical expression for the mass of the neoplasia results to be: [formula] The Measurement Error Model

[2] = three-compartment PK model; known average value; cited from earlier work
[3] = system: H207 (ovarian human carcinoma); assay: Tumor growth model for treated subjects, H207 inoculated subcutaneously in athymic nude mice (Experiment-C); format: in vivo; details: average growth curve; remark: listed apart in the source
[4] = cage G2, 0.39 mg/kg iv-bolus q7dx3
[5] = cage G3, 0.52 mg/kg iv-bolus q7dx3
[6] = cage G4, 0.78 mg/kg iv-bolus q7dx3
[7] = cage G5, 0.26 mg/kg iv-bolus q4dx3
[8] = cage G6, 0.39 mg/kg iv-bolus q4dx3
[9] = cage G7, 0.52 mg/kg iv-bolus q4dx3
[10] = cage G8, 0.117 mg/kg iv-bolus qdx5x2wks
[11] = cage G9, 0.156 mg/kg iv-bolus qdx5x2wks
[12] = cage G10, 0.78 mg/kg iv-bolus q7dx3, drug from a different batch

## C=C(Br)C(=O)Nc1cc(C(=O)Nc2cc(C(=O)Nc3cc(C(=O)Nc4cc(C(=O)NCCNC(=N)N)n(C)c4)n(C)c3)n(C)c2)n(C)c1 [Drug-C, brostallicin]
[1]; [4]
  K1 (index of the tumor cells death rate): 0.289 day⁻¹
  K2 (index of the potency of the compound): 0.1731 mL/g/day
  λ0 (production rate of tumor cells, exponential phase): 0.2886
  λ1 (tumor cells mass produced in the time unit, linear phase): 0.5183
[1]; [5]
  K1 (index of the tumor cells death rate): 0.2574 day⁻¹
  K2 (index of the potency of the compound): 0.1519 mL/g/day
  λ0 (production rate of tumor cells, exponential phase): 0.2757
  λ1 (tumor cells mass produced in the time unit, linear phase): 0.6241
[1]; [6]
  K1 (index of the tumor cells death rate): 0.2558 day⁻¹
  K2 (index of the potency of the compound): 0.1085 mL/g/day
  λ0 (production rate of tumor cells, exponential phase): 0.2297
  λ1 (tumor cells mass produced in the time unit, linear phase): 0.3193
[1]; [7]
  K1 (index of the tumor cells death rate): 0.2979 day⁻¹
  K2 (index of the potency of the compound): 0.2044 mL/g/day
  λ0 (production rate of tumor cells, exponential phase): 0.2728
  λ1 (tumor cells mass produced in the time unit, linear phase): 0.602
[1]; [8]
  K1 (index of the tumor cells death rate): 0.3486 day⁻¹
  K2 (index of the potency of the compound): 0.1698 mL/g/day
  λ0 (production rate of tumor cells, exponential phase): 0.2554
  λ1 (tumor cells mass produced in the time unit, linear phase): 0.2736
[1]; [9]
  K1 (index of the tumor cells death rate): 0.2488 day⁻¹
  K2 (index of the potency of the compound): 0.12 mL/g/day
  λ0 (production rate of tumor cells, exponential phase): 0.1966
  λ1 (tumor cells mass produced in the time unit, linear phase): 0.279
[1]; [10]
  K1 (index of the tumor cells death rate): 0.3766 day⁻¹
[1]; [11]
  K2 (index of the potency of the compound): 0.2829 mL/g/day
  λ0 (production rate of tumor cells, exponential phase): 0.2942
  λ1 (tumor cells mass produced in the time unit, linear phase): 0.1931
[1]; [12]
  K1 (index of the tumor cells death rate): 0.3789 day⁻¹
  K2 (index of the potency of the compound): 0.1558 mL/g/day
  λ0 (production rate of tumor cells, exponential phase): 0.2969
  λ1 (tumor cells mass produced in the time unit, linear phase): 0.2177
[2]
  K10: 134.7 day⁻¹
  K12: 42.33 day⁻¹
  K13: 13.28 day⁻¹
  K21: 48.7 day⁻¹
  K31: 5.898 day⁻¹
  Vd: 0.1811 L/kg
[3]; [10]
  K2 (index of the potency of the compound): 0.2081 mL/g/day
  λ0 (production rate of tumor cells, exponential phase): 0.2611
  λ1 (tumor cells mass produced in the time unit, linear phase): 0.581
[3]; [11]
  K1 (index of the tumor cells death rate): 0.4152 day⁻¹
